The results in this text go back to the OPERA property sets (Mansouri et al. 2018).

By logP is commonly meant the decadic logarithm of the partition coefficient of the neutral form, usually between octanol and water. Turning to `CC[C@H]1OC(=O)C[C@@H](O)[C@H](C)[C@@H](O[C@@H]2O[C@H](C)[C@@H](O[C@H]3C[C@@](C)(O)[C@@H](O)[C@H](C)O3)[C@H](N(C)C)[C@H]2O)[C@@H](CC=O)C[C@@H](C)C(=O)C=CC(C)=CC1CO[C@@H]1O[C@H](C)[C@@H](O)[C@@H](OC)[C@H]1OC` (stereo not given in full), the lipophilicity (logP) came out at 1.63.

With `CC[C@H]1OC(=O)C[C@@H](O)[C@H](C)[C@@H](O[C@@H]2O[C@H](C)[C@@H](O)[C@H](N(C)C)[C@H]2O)[C@@H](CCN2C[C@H](C)C[C@H](C)C2)C[C@@H](C)C(=O)C=CC(C)=C[C@@H]1CO[C@@H]1O[C@H](C)[C@@H](O)[C@@H](OC)[C@H]1OC`, the logP was 3.8.

Take `CO[C@@H]1[C@@H](O[C@@H]2O[C@H](C)[C@@H](O[C@H]3C[C@@](C)(O)[C@@H](OC(=O)CC(C)C)[C@H](C)O3)[C@H](N(C)C)[C@H]2O)[C@@H](CC=O)C[C@@H](C)C(=O)C=CC2OC2C[C@@H](C)OC(=O)C[C@H]1OC(C)=O` (stereo not given in full): the logP turned out to be 3.04.

As to `COC1C(OC(C)=O)CC(=O)OC(C)CC2OC2C=CC(=O)C(C)CC(CC=O)C1OC1OC(C)C(O)C(N(C)C)C1O` (stereo not given), the logP came out at 0.3.

On to `CC[C@H]1OC(=O)[C@H](C)[C@@H](O[C@H]2C[C@@](C)(OC)[C@@H](O)[C@H](C)O2)[C@H](C)[C@@H](O[C@@H]2O[C@H](C)C[C@H](N(C)C)[C@H]2O)[C@](C)(O)C[C@@H](C)CN(C)[C@H](C)[C@@H](O)[C@]1(C)O`, for which the logP amounted to 4.02.

On to `CCC1OC(=O)C[C@@H](O)[C@H](C)[C@@H](O[C@@H]2O[C@H](C)C[C@H](N(C)C)[C@H]2O)[C@@H](CC=O)C[C@@H](C)C(=O)C=C[C@]2(C)OC2C1C` (stereo not given in full), for which the logP is 2.19.

Turning to `CO[C@H]1C[C@H](O[C@H]2[C@H](C)[C@@H](O[C@@H]3O[C@H](C)C[C@H](N(C)C)[C@H]3O)[C@@H](C)C[C@]3(CO3)C(=O)[C@H](C)[C@@H](O)[C@@H](C)[C@@H](C)OC(=O)[C@@H]2C)O[C@@H](C)[C@@H]1O`, the logP was determined as 1.69.

`CCC1OC(=O)CC(O)C(C)C(OC2OC(C)C(O)C(N(C)C)C2O)C(CC=O)CC(C)C(=O)C=CC(C)=CC1CO` (stereo not given) had a logP of 0.99.

On to `CCC1OC(=O)C(C)C(OC2CC(C)(OC)C(O)C(C)O2)C(C)C(OC2OC(C)CC(N(C)C)C2O)C(C)(O)CC(C)C(N)C(C)C2OC(=O)OC12C` (stereo not given), for which the logP stood at 2.92.

`CC[C@H]1OC(=O)[C@H](C)[C@@H](O[C@H]2C[C@@](C)(OC)[C@@H](O)[C@H](C)O2)[C@H](C)[C@@H](O[C@@H]2O[C@H](C)C[C@H](N(C)C)[C@H]2O)[C@](C)(O)C[C@@H](C)C(=O)[C@H](C)[C@@H](O)[C@]1(C)O` returned a logP of 3.06.
